{"source": "patent US20090054245A1", "about": "“Method for detecting gastric cancer by detecting VLDLR gene” (FUJIFILM Corporation, priority 2006, published 2009)", "key": {"[1]": {"tested_on": "CpG islands of the human VLDLR gene in gastric cancer cells", "assay": "Demethylation of VLDLR CpG islands by culturing gastric cancer cells with 5-aza-dC", "type": "cell-based", "details": "gastric cancer cells cultured in the presence of 5-aza-dC", "excerpt": "In addition, the extent of methylation of the CpG islands strongly correlated with inhibition of the expression of the human VLDLR gene in some gastric cancer cells."}, "[2]": {"tested_on": "human VLDLR gene expression in SNU601 and MKN74 cells", "assay": "RT-PCR analysis of human VLDLR expression in gastric cancer cells treated with 5-aza-dC and/or TSA", "type": "cell-based", "excerpt": "An empty pGL3 basic vector (mock) and constructs each comprising a different one of 3 sequences (fragments 1 to 3) upstream or in the proximity of VLDLR exon 1 were separately introduced into SNU601 and MKN74 cells. Luciferase activity was normalized relative to that of an internal control. Data shown in FIG. 3B contains mean values±SEMs of triplicate experiments of 3 different constructs. […] Arrows indicate fragments that were digested with restriction enzymes in a specific manner at sites recognized as methylated CpGs. […] With the use of two fragments (BS-1 and BS-2), all of the 71 CpG sites were subjected to sequencing. Squares represent CpG sites (white square: unmethylated site; and black square: methylated site).\nThe human VLDLR gene expression was examined in the cases in which CpG islands of the human VLDLR gene in gastric cancer cells were demethylated. Specifically, gastric cancer cells were treated in the presence of 5-aza-dC (serving as a transmethylase inhibitor) at different concentrations for 5 days, followed by determination of the capacity of inducing human VLDLR mRNA. […] RT-PCR was carried out with the use of two types of specific primers used for amplification of human VLDLR gene, followed by electrophoresis. GAPDH was used as an internal control. […]"}}, "note": "“Also recorded” adds a separate entry of the source."}
{"smiles": "Nc1ncn([C@H]2C[C@H](O)[C@@H](CO)O2)c(=O)n1", "note": "[5-aza-dC, 5-azadeoxycytidine]", "values": [{"measurement": "demethylation of CpG islands of the human VLDLR gene", "setting": "[1]", "value": "possible to demetylate such CpG islands"}, {"measurement": "human VLDLR mRNA expression after 5-aza-dC treatment", "setting": "[2]; SNU601 and MKN74 cells (no VLDLR expression, no homozygous deletion), 5-aza-dC for 5 days (10 μM in FIG. 3A legend)", "value": "possible to recover the expression level of the human VLDLR gene; also recorded: found to have the capacity of inducing human VLDLR mRNA"}]}
{"smiles": "CC(/C=C/C(=O)NO)=C\\[C@@H](C)C(=O)c1ccc(N(C)C)cc1", "note": "[TSA, trichostatin A]", "values": [{"measurement": "human VLDLR gene expression level in the presence of TSA", "setting": "[2]; SNU601 and MKN74 cells with densely methylated VLDLR CpG islands, TSA (10 ng/ml in FIG. 3A legend)", "value": "equivalent to that obtained in the absence of TSA"}]}
